Laboratory results published in ChEMBL document CHEMBL5154898, “Discovery and Optimization of 5-Hydroxy-Diclofenac toward a New Class of Ligands with Nanomolar Affinity for the CaMKIIα Hub Domain” (J Med Chem, 2022).

Experiments:
[1] = biological target: T1, Calcium/calmodulin-dependent protein kinase type II subunit alpha (Rattus norvegicus, UniProt P11275); assay: Displacement of [3H]NCS-382 from CaMK2alpha in rat brain cerebral cortex membrane homogenates assessed as inhibition constant measured after 60 mins by TopCount scintillation counting method; assay type: cell membranes
[2] = biological target: T1, Calcium/calmodulin-dependent protein kinase type II subunit alpha; assay: Inhibition of [3H]NCS-382 binding to CaMK2alpha in rat cerebrocortical membranes; assay type: cell membranes, Cerebral cortex, Membrane
[3] = biological target: Calcium/calmodulin-dependent protein kinase type II subunit alpha (Homo sapiens, UniProt Q9UQM7); assay: Inhibition of [3H]NCS-382 binding to CaMK2alpha (unknown origin)
[4] = Plasma concentration in C57BL/6J mouse at 10 mg/kg , po measured after 30 mins by UPLC based tandem mass spectrometry analysis; assay type: ADME, organism-based
[5] = Ratio of drug concentration in brain to plasma in C57BL/6J mouse at 10 mg/kg , po measured after 30 mins by UPLC based tandem mass spectrometry analysis; assay type: ADME, organism-based; settings: read-out: BPR
[6] = Brain concentration in C57BL/6J mouse at 10 mg/kg , po measured after 30 mins by UPLC based tandem mass spectrometry analysis; assay type: ADME, organism-based; settings: read-out: Ct
[7] = biological target: T1, Calcium/calmodulin-dependent protein kinase type II subunit alpha; assay: Displacement of [3H]HOCPCA from CaMK2alpha in rat brain cerebral cortex membrane homogenates assessed as inhibition constant measured after 60 mins by TopCount scintillation counting method; assay type: cell membranes
BCRP [8] = assay: Apparent permeability across apical to basolateral side in dog MDCK-II cells expressing BCRP at 3 uM measured after 60 to 90 mins by LC-MS/MS analysis; assay type: ADME, cell-based, Canis lupus familiaris; settings: time 60-90 min
[9] = Plasma concentration in C57BL/6J mouse at 5 mg/kg , sc measured after 30 mins by UPLC based tandem mass spectrometry analysis; assay type: ADME, organism-based
BCRP [10] = assay: Apparent permeability across basolateral to apical side in dog MDCK-II cells expressing BCRP at 3 uM preincubated with BCRP inhibitor, Ko 143 for 15 to 30 mins followed by compound addition and measured after 60 to 90 mins by LC-MS/MS analysis; assay type: ADME, cell-based, Canis lupus familiaris; settings: with Ko 143 (BCRP inhibitor; concentration not stated), time 60-90 min
[11] = Ratio of drug concentration in brain to plasma in C57BL/6J mouse at 5 mg/kg , sc measured after 30 mins by UPLC based tandem mass spectrometry analysis; assay type: ADME, organism-based; settings: read-out: BPR
MDR1 (P-gp) [12] = assay: Apparent permeability across apical to basolateral side in dog MDCKII-MDR1 cells at 3 uM measured after 60 to 90 mins by LC-MS/MS analysis; assay type: ADME, cell-based, Canis lupus familiaris; settings: MDCK-MDR1, time 60-90 min
[13] = Brain concentration in C57BL/6J mouse at 5 mg/kg , sc measured after 30 mins by UPLC based tandem mass spectrometry analysis; assay type: ADME, organism-based; settings: read-out: Ct
BCRP [14] = assay: Apparent permeability across apical to basolateral side in dog MDCK-II cells expressing BCRP at 3 uM preincubated with BCRP inhibitor, Ko 143 for 15 to 30 mins followed by compound addition and measured after 60 to 90 mins by LC-MS/MS analysis; assay type: ADME, cell-based, Canis lupus familiaris; settings: with Ko 143 (BCRP inhibitor; concentration not stated), time 60-90 min
[15] = Chemical stability of compound in PBS buffer at pH 7.4 assessed as half life at 37 degreeC incubated for 7 days by HPLC based LC-MS analysis; assay type: physicochemical; settings: time 7 day
[16] = Chemical stability of compound in PBS buffer at pH 7.4 assessed as half life at 25 degreeC incubated for 7 days by HPLC based LC-MS analysis; assay type: physicochemical; settings: time 7 day
MDR1 (P-gp) [17] = assay: Apparent permeability across basolateral to apical side in dog MDCKII-MDR1 cells at 3 uM measured after 60 to 90 mins by LC-MS/MS analysis; assay type: ADME, cell-based, Canis lupus familiaris; settings: MDCK-MDR1, time 60-90 min
MDR1 (P-gp) [18] = assay: Apparent permeability across apical to basolateral side in dog MDCKII-MDR1 cells at 3 uM preincubated with P-gp inhibitor elacridar for 15 to 30 mins followed by compound addition and measured after 60 to 90 mins by LC-MS/MS analysis; assay type: ADME, cell-based, Canis lupus familiaris; settings: MDCK-MDR1, with elacridar (P-gp inhibitor; concentration not stated), time 60-90 min
MDR1 (P-gp) [19] = assay: Apparent permeability across basolateral to apical side in dog MDCKII-MDR1 cells at 3 uM preincubated with P-gp inhibitor elacridar for 15 to 30 mins followed by compound addition and measured after 60 to 90 mins by LC-MS/MS analysis; assay type: ADME, cell-based, Canis lupus familiaris; settings: MDCK-MDR1, with elacridar (P-gp inhibitor; concentration not stated), time 60-90 min
BCRP [20] = assay: Apparent permeability across basolateral to apical side in dog MDCK-II cells expressing BCRP at 3 uM measured after 60 to 90 mins by LC-MS/MS analysis; assay type: ADME, cell-based, Canis lupus familiaris; settings: time 60-90 min
[21] = Chemical stability of compound in PBS buffer at pH 7.4 assessed as cyclized intermediate formation at 25 to 37 degreeC incubated for 7 days by HPLC based LC-MS analysis; assay type: physicochemical; settings: pH 7.4, 168 h, time 7 day
[22] = Chemical stability of compound in PBS buffer at pH 7.4 assessed as oxidized intermediate formation at 25 to 37 degreeC incubated for 7 days by HPLC based LC-MS analysis; assay type: physicochemical; settings: pH 7.4, 168 h, time 7 day
[23] = biological target: Calcium/calmodulin-dependent protein kinase type II subunit alpha (Rattus norvegicus) (UniProt P11275); assay: Inhibition of [3H]NCS-382 binding to CaMK2alpha in rat brain cerebral cortex membrane homogenates at 100 uM measured after 60 mins by TopCount scintillation counting method relative to control; assay type: cell membranes
Calcium/calmodulin-dependent protein kinase type II subunit alpha (Rattus norvegicus), sequence (P11275 whole entry): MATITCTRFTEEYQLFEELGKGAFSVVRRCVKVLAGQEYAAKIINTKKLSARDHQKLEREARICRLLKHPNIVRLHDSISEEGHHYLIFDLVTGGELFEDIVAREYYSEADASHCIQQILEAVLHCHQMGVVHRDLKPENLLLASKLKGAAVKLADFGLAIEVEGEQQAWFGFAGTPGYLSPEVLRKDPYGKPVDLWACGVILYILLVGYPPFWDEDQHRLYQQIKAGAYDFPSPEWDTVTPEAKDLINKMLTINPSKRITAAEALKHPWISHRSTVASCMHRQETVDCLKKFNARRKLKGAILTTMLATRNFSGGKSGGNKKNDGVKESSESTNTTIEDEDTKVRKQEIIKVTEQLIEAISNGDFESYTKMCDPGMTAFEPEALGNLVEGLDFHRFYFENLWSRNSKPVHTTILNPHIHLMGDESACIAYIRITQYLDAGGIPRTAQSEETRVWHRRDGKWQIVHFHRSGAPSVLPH

T1 sequence (P11275 whole entry): as above
Calcium/calmodulin-dependent protein kinase type II subunit alpha (Homo sapiens, UniProt Q9UQM7), sequence (Q9UQM7 whole entry): as the sequence (P11275 whole entry) above, with N324S counted along it

Q: For `O=C(O)Cc1ccccc1Oc1ccc(O)cc1CC(=O)O`, which Ki [1] is on record?
A: 830 nM

Q: For `O=C(O)Cc1ccccc1O`, which IC50 [2] is on record?
A: 2100 nM

Q: And the Ki [2]?
A: 2000 nM

Q: For `O=C(O)CCCO` [OXYBATE], which Ki [3] is on record?
A: 4300 nM

Q: With `Oc1ccc(Oc2ccccc2Cl)c(Cc2nnn[nH]2)c1` as the molecule, how does the Ki [1] read?
A: 70 nM

Q: What about the concentration at 0.5 h [4] of the same molecule?
A: 1970 ng/mL

Q: And the Kp at 0.5 h [5]?
A: 0.012

Q: What about the concentration at 0.5 h [6] of the same molecule?
A: 22 ng/mL

Q: What about the Ki [7] of the same molecule?
A: 94 nM

Q: For `Oc1ccc(Oc2ccccc2Cl)c(Cc2cc(O)no2)c1`, which Ki [1] is on record?
A: 20000 nM

Q: With `O=C(O)Cc1ccc(O)cc1Oc1ccccc1` as the molecule, how does the Ki [1] read?
A: 47 nM

Q: Which results are given for `O=C(O)Cc1cccc(O)c1` [3-Hydroxyphenylacetate]?
A: IC50 [2]: 130 nM; Ki [2]: 126 nM

Q: With `O=C(O)Cc1cc(O)ccc1Oc1ccc([N+](=O)[O-])cc1Cl` as the molecule, how does the Ki [1] read?
A: 14 nM

Q: For `O=C(O)Cc1ccccc1Nc1c(Cl)cc(O)cc1Cl` [4'-HYDROXY-DICLOFENAC], which Ki [3] is on record?
A: 2100 nM

Q: Which results are given for `Oc1ccc(Oc2ccccc2Cl)c(-c2nnn[nH]2)c1`?
A: Ki [1]: 25000 nM; Ki [7]: 40000 nM

Q: Which Ki [1] does the source give for `O=C(O)Cc1ccc(O)cc1Oc1c(Cl)cccc1Cl` here?
A: 31 nM

Q: For `O=C(O)Cc1ccc(O)cc1`, which Ki [3] is on record?
A: 2200 nM

Q: What does the source list for `O=C(O)Cc1ccc(O)cc1Nc1c(Cl)cccc1Cl`?
A: Papp A→B at 3 µM (BCRP [8]): 1.25 ×10⁻⁶ cm/s; concentration at 0.5 h [9]: 6790 ng/mL; Papp B→A at 3 µM (BCRP [10]): 4.03 ×10⁻⁶ cm/s; Kp at 0.5 h [11]: 0.013; Papp A→B at 3 µM (MDR1 (P-gp) [12]): 4.66 ×10⁻⁶ cm/s; concentration at 0.5 h [13]: 88 ng/mL; Papp A→B at 3 µM (BCRP [14]): 3.05 ×10⁻⁶ cm/s; half-life [15]: 24 h; half-life [16]: 10 h; Papp B→A at 3 µM (MDR1 (P-gp) [17]): 3.73 ×10⁻⁶ cm/s; Papp A→B at 3 µM (MDR1 (P-gp) [18]): 4.15 ×10⁻⁶ cm/s; Papp B→A at 3 µM (MDR1 (P-gp) [19]): 2.71 ×10⁻⁶ cm/s; Papp B→A at 3 µM (BCRP [20]): 19.1 ×10⁻⁶ cm/s

Q: For `O=C(O)/C=C/c1ccc(O)cc1` [COUMARIC ACID], which Ki [3] is on record?
A: > 100000 nM

Q: For `O=C(O)Cc1ccccc1Nc1c(Cl)cccc1Cl` [DICLOFENAC], which Ki [1] is on record?
A: 5100 nM

Q: With `O=C(O)Cc1cc(O)ccc1Oc1c(Cl)cccc1Cl` as the molecule, how does the Ki [1] read?
A: 70 nM

Q: Which Ki [1] does the source give for `O=C(O)Cc1ccc(O)cc1Cc1ccccc1` here?
A: 500 nM

Q: Which Ki [1] does the source give for `O=C(O)Cc1ccc(O)cc1Oc1ccccc1Cl` here?
A: 27 nM

Q: And the Stability [21]?
A: Stable

Q: What about the concentration at 0.5 h [4] of the same molecule?
A: 29400 ng/mL

Q: What about the Kp at 0.5 h [5] of the same molecule?
A: 0.011

Q: And the Stability [22]?
A: Stable

Q: What about the concentration at 0.5 h [6] of the same molecule?
A: 308 ng/mL

Q: What about the Ki [7] of the same molecule?
A: 53 nM

Q: With `O=c1[nH]c(Cc2cc(O)ccc2Oc2ccccc2Cl)no1` as the molecule, how does the Ki [1] read?
A: 1200 nM

Q: Which Ki [1] does the source give for `O=C(O)Cc1cc(O)ccc1Oc1ccccc1O` here?
A: 33 nM

Q: With `O=c1[nH]nc(Cc2cc(O)ccc2Oc2ccccc2Cl)[nH]1` as the molecule, how does the Ki [1] read?
A: 420 nM

Q: For `O=C(O)Cc1ccc(O)cc1Sc1ccccc1`, which Ki [1] is on record?
A: 77 nM

Q: Which Ki [1] does the source give for `O=C(O)C(F)(F)c1cc(O)ccc1Oc1ccccc1Cl` here?
A: 1200 nM

Q: What does the source list for `O=C1Cc2cc(O)ccc2N1c1c(Cl)cccc1Cl`?
A: Ki [1]: > 100000 nM; inhibition [23]: < 50%

Q: With `NC(=O)Cc1cc(O)ccc1Oc1ccccc1Cl` as the molecule, how does the Ki [1] read?
A: > 100000 nM

Q: What about the inhibition [23] of the same molecule?
A: < 50%

Q: Which Ki [3] does the source give for `O=C(O)/C=C/c1ccccc1` [CINNAMIC ACID] here?
A: > 100000 nM
